{"source": "paper PMC9958325", "about": "(Nature Communications, 2023)", "key": {"[1]": {"assay": "Pharmacokinetic study in PXB-mice (human liver-chimeric)", "conditions": "for Plasma concentration: individual animals (3 per time point), LC/MS/MS, listed as TKB0245"}, "HeLa-ACE2-TMPRSS2 cells": {"tested_on": "HeLa-ACE2-TMPRSS2 cells", "assay": "Intracellular concentrations of compounds (LC/MS), HeLa-ACE2-TMPRSS2 cells", "conditions": "6 h; for Intracellular amount, individual: listed as TKB-0245"}, "human calpain": {"target": "T1, human calpain (Homo sapiens, UniProt P07384)", "T1 sequence (P07384 2-714)": "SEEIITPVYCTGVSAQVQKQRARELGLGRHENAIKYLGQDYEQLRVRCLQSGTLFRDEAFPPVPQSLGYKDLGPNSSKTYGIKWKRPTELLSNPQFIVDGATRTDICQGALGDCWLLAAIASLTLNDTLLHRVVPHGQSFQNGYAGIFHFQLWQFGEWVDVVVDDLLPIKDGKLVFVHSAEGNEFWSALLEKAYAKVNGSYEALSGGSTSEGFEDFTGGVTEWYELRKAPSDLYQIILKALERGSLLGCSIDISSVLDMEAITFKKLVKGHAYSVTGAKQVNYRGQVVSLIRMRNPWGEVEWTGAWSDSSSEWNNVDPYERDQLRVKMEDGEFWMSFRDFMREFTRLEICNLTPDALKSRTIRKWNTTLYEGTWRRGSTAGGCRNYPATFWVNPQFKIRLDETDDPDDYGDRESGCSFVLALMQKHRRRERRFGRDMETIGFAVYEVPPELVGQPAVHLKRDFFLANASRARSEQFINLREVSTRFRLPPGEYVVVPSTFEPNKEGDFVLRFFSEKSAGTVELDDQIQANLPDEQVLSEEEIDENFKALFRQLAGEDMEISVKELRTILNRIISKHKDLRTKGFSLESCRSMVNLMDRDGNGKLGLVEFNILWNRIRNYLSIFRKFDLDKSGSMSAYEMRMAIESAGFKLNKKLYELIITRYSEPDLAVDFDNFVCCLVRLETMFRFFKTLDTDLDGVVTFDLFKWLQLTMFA", "T1 sequence (P04632 1-268 partner)": "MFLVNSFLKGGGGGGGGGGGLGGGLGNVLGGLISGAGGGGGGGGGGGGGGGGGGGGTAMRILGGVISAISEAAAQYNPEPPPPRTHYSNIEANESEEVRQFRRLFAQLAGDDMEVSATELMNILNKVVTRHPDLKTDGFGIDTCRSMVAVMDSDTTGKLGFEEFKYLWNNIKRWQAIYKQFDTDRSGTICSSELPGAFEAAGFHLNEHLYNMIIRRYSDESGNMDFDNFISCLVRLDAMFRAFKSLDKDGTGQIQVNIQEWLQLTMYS", "assay": "Human calpain activity assay", "format": "biochemical", "conditions": "for %inhibition against humanCalpain: triplicate"}, "SARS-CoV-2^WK-521": {"tested_on": "SARS-CoV-2^WK-521", "assay": "microbe, parasite or virus in culture", "format": "cell-based", "design": "EC95, individual assays / EC95, Average: unit: µM"}, "[2]": {"tested_on": "SARS-CoV-2 TKYX00012/ο BA.1", "assay": "microbe, parasite or virus in culture", "format": "cell-based"}, "[3]": {"tested_on": "SARS-CoV-2^WK521 in HeLa-ACE2-TMPRSS2 cells", "assay": "Antiviral assay, HeLa-ACE2-TMPRSS2 cells, WK521", "format": "cell-based"}, "[4]": {"tested_on": "SARS-CoV-2 TKYS02037/ο BA.2", "assay": "microbe, parasite or virus in culture", "format": "cell-based"}}, "note": "Values joined by “and” are separate entries in the source; they are usually repeats but may differ in a detail not shown here. Equal values may be shown once. Read-outs that look alike come from different tables or passages of the source."}
{"smiles": "CC(C)(C)[C@H](NC(=O)C(F)(F)F)C(=O)N1C[C@H]2[C@@H]([C@H]1C(=O)N[C@@H](C[C@@H]1CCNC1=O)C(=O)c1nc3c(F)cccc3s1)C2(C)C", "note": "[TKB245]", "values": [{"measurement": "Plasma concentration", "setting": "[1]; i.v., 240 min", "value": "47.02 ng/mL and 52.34 ng/mL and 93.04 ng/mL"}, {"measurement": "Plasma concentration", "setting": "[1]; i.v., 480 min", "value": "10.40 ng/mL and 14.76 ng/mL and 18.04 ng/mL"}, {"measurement": "Plasma concentration", "setting": "[1]; i.v., 1440 min", "value": "13.63 ng/mL and 11.63 ng/mL and 10.43 ng/mL"}, {"measurement": "Oral F", "setting": "[1]; male PXB-mouse 10 mg/kg i.v. and p.o., dose-normalized AUC ratio, 10 mg/kg", "value": "47.7% and 48% and 48¶ %"}, {"measurement": "Plasma concentration", "setting": "[1]; p.o., 10 min", "value": "914.50 ng/mL and 1553.11 ng/mL and 2872.30 ng/mL"}, {"measurement": "Plasma concentration", "setting": "[1]; p.o., 60 min", "value": "1278.12 ng/mL and 1343.67 ng/mL and 1794.27 ng/mL"}, {"measurement": "Plasma concentration", "setting": "[1]; p.o., 240 min", "value": "152.94 ng/mL and 98.79 ng/mL and 128.84 ng/mL"}, {"measurement": "Plasma concentration", "setting": "[1]; p.o., 480 min", "value": "41.61 ng/mL and 34.39 ng/mL and 32.81 ng/mL"}, {"measurement": "Plasma concentration", "setting": "[1]; p.o., 1440 min", "value": "25.98 ng/mL and 21.91 ng/mL and 27.88 ng/mL"}, {"measurement": "Intracellular amount, avg", "setting": "HeLa-ACE2-TMPRSS2 cells; Hela ACE2 TMPRSS2, 10uM", "value": "0.603 pmol(total)"}, {"measurement": "Intracellular amount, individual", "setting": "HeLa-ACE2-TMPRSS2 cells; Hela ACE2 TMPRSS2, 10uM", "value": "0.6360 pmol(total) and 0.5701 pmol(total)"}, {"measurement": "Intracellular amount, avg", "setting": "HeLa-ACE2-TMPRSS2 cells; Hela ACE2 TMPRSS2, 50uM", "value": "4.167 pmol(total)"}, {"measurement": "Intracellular amount, individual", "setting": "HeLa-ACE2-TMPRSS2 cells; Hela ACE2 TMPRSS2, 50uM", "value": "4.585 pmol(total) and 3.749 pmol(total)"}, {"measurement": "Intracellular amount, avg", "setting": "HeLa-ACE2-TMPRSS2 cells; Hela ACE2 TMPRSS2, 100uM", "value": "8.85 pmol(total)"}, {"measurement": "Intracellular amount, individual", "setting": "HeLa-ACE2-TMPRSS2 cells; Hela ACE2 TMPRSS2, 100uM", "value": "8.312 pmol(total) and 9.388 pmol(total)"}, {"measurement": "Effect on human calpain (in words)", "setting": "human calpain", "value": "neither of human cysteine enzymes, cathepsin L and calpain, were significantly affected"}, {"measurement": "%inhibition against humanCalpain", "setting": "human calpain; 0.000128 µM", "value": 0, "unit": "%"}, {"measurement": "%inhibition against humanCalpain", "setting": "human calpain; 0.00064 µM", "value": 0, "unit": "%"}, {"measurement": "%inhibition against humanCalpain", "setting": "human calpain; 0.0032 µM", "value": 0, "unit": "%"}, {"measurement": "%inhibition against humanCalpain", "setting": "human calpain; 0.08 µM", "value": 0, "unit": "%"}, {"measurement": "%inhibition against humanCalpain", "setting": "human calpain; 0.4 µM", "value": 0, "unit": "%"}, {"measurement": "%inhibition against humanCalpain", "setting": "human calpain; 2 µM", "value": "9.6344% and 1.813%"}, {"measurement": "IC50", "setting": "human calpain; 60 minute incubation, mean ± 1 S.D., n=3, read-out: IC50, human calpains", "value": "> 2000", "unit": "nM"}, {"measurement": "EC95, Average", "setting": "SARS-CoV-2^WK-521", "value": 0.53}, {"measurement": "EC95, individual assays", "setting": "SARS-CoV-2^WK-521", "value": "0.59 and 0.09 and 0.55 and 0.89"}, {"measurement": "SARS-CoV2 RNA VeroE6 cell-based assay EC95", "setting": "SARS-CoV-2^WK-521", "value": "530 nM and 530 ± 330 nM"}, {"measurement": "EC50", "setting": "SARS-CoV-2^WK-521; read-out: EC50, Average", "value": 31.2, "unit": "nM"}, {"measurement": "EC50", "setting": "SARS-CoV-2^WK-521; read-out: EC50, VeroE6 + 2 µM CP100356", "value": "1 ± 1", "unit": "nM"}, {"measurement": "EC50", "setting": "SARS-CoV-2^WK-521; read-out: EC50, VeroE6 with CP100356, Average", "value": 1.56, "unit": "nM"}, {"measurement": "EC50", "setting": "SARS-CoV-2^WK-521; read-out: EC50, VeroE6 with CP100356, individual assays", "value": "1.4 nM and 2.37 nM and 0.9 nM"}, {"measurement": "EC50", "setting": "SARS-CoV-2^WK-521; read-out: EC50, individual assays", "value": "40 nM and 20 nM and 50 nM and 15 nM"}, {"measurement": "EC50", "setting": "SARS-CoV-2^WK-521; read-out: SARS-CoV2 RNA VeroE6 cell-based assay EC50", "value": "30 ± 20", "unit": "nM"}, {"measurement": "EC50", "setting": "[2]; read-out: EC50 ο BA1, Average", "value": 13.7, "unit": "nM"}, {"measurement": "EC50", "setting": "[2]; read-out: EC50 ο BA1, individual assays", "value": "10 nM and 7 nM and 24.2 nM"}, {"measurement": "EC50", "setting": "[3]; SARS-CoV-2^WK521, read-out: EC50, HeLa-ACE2-TMPRSS2", "value": "21 ± 8", "unit": "nM"}, {"measurement": "EC50", "setting": "[3]; source data, listed as TKB0245, read-out: EC50, HeLa-AEC2-TMPRSS2, individual assays", "value": "14 nM and 30 nM and 20 nM"}, {"measurement": "EC50", "setting": "[3]; source data, read-out: EC50, HeLa-AEC2-TMPRSS2, Average", "value": 21.3, "unit": "nM"}, {"measurement": "EC50", "setting": "[4]; read-out: EC50 against TKYVS2037/ο BA.2", "value": "45 ± 14", "unit": "nM"}, {"measurement": "EC50", "setting": "[4]; read-out: EC50 ο BA2, Average", "value": 45.3, "unit": "nM"}, {"measurement": "EC50", "setting": "[4]; read-out: EC50 ο BA2, individual assays", "value": "60 nM and 32 nM and 44 nM"}]}
